Experimental data taken from PubChem BioAssay (NCI).
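Test compounds were applied to cells in 96-well plates for 48 hours at 5 doses. The concentration for 50% growth inhibition is given as GI50. The concentration for full growth arrest is given as TGI.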

Experiments:
Assay in all cases: NCI anticancer screen, dose series, 48 h
OVCAR-8 ovarian = system: OVCAR-8 ovarian
TK-10 renal = system: TK-10 renal
U251 CNS = system: U251 CNS
SNB-19 CNS = system: SNB-19 CNS
MCF7 breast = system: MCF7 breast
SK-MEL-28 melanoma = system: SK-MEL-28 melanoma
M14 melanoma = system: M14 melanoma
MOLT-4 leukemia = system: MOLT-4 leukemia
IGROV1 ovarian = system: IGROV1 ovarian
HL-60(TB) leukemia = system: HL-60(TB) leukemia

Row | SMILES | GI50 (OVCAR-8 ovarian) [µM] | TGI (OVCAR-8 ovarian) [µM] | GI50 (TK-10 renal) [µM] | TGI (TK-10 renal) [µM] | GI50 (U251 CNS) [µM] | TGI (U251 CNS) [µM] | GI50 (SNB-19 CNS) [µM] | TGI (SNB-19 CNS) [µM] | GI50 (MCF7 breast) [µM] | TGI (MCF7 breast) [µM] | GI50 (SK-MEL-28 melanoma) [µM] | TGI (SK-MEL-28 melanoma) [µM] | GI50 (M14 melanoma) [µM] | TGI (M14 melanoma) [µM] | GI50 (MOLT-4 leukemia) [µM] | TGI (MOLT-4 leukemia) [µM] | GI50 (IGROV1 ovarian) [µM] | TGI (IGROV1 ovarian) [µM] | GI50 (HL-60(TB) leukemia) [µM] | TGI (HL-60(TB) leukemia) [µM]
1 | Nc1ncnc2c1N=C(c1ccc3c(c1)OCO3)CC(c1ccc([N+](=O)[O-])cc1)N2 (stereo not given) | 55.9 | > 100 | 80.9 | > 100 | 49.3 | > 100 | 84.9 | > 100 | 31.5 | > 100 | > 100 | > 100 | > 100 | > 100 | 23.7 | > 100 | 0.0684 | 3.24 | 13.1 | > 100
2 | COc1cc2nc(N3CCCC3)nc(NCc3ccccc3)c2cc1OC | 3.2 | 13.7 | 1.9 | 3.71 | 1.88 | 3.92 | 5.05 | 17.7 | 1.71 | 4.21 | 1.75 | 3.19 | 1.81 | 3.49 | 2.89 | 9.1 | 3.66 | 16.2 | 2.07 | 4.33
3 | CN1CCN(C(=O)C(C)(C)c2ccc(C(=O)Nc3cn4cc(-c5ccncc5)ccc4n3)cc2)CC1 | 0.347 | > 100 | 0.484 | > 100 | 0.332 | > 100 | 0.239 | > 100 | 0.282 | > 100 | 0.343 | 6.47 | 0.389 | 22.8 | 0.319 | > 46.7 | 0.22 | 6 | 0.371 | 3.55
4 | Cc1cc(NC(=O)NC(=O)c2ccccc2NC(=O)C(C)N)ccc1Oc1ncc(Br)cn1 (stereo not given) | – | 15.3 | – | 39.4 | – | 24.4 | – | 56.3 | – | 58.2 | – | 37.4 | – | 3.71 | – | 52.2 | – | 29.7 | – | 0.558
5 | C/C(=N/NC(=S)N1CCCCC1)c1ccccc1O | – | > 31.6 | – | > 31.6 | – | > 31.6 | – | > 31.6 | – | > 31.6 | – | > 31.6 | – | > 31.6 | – | > 31.6 | – | > 100 | – | > 31.6
6 | COc1ccc(C/C(C)=C(/c2ccc(OCCN3CCCCC3)cc2)c2ccc(OC(=O)NCc3ccccc3)cc2)cc1 | 0.472 | 0.937 | 0.405 | 0.781 | 0.403 | 0.791 | 0.459 | 0.852 | 0.0568 | 0.512 | 0.44 | 0.818 | 0.344 | 0.731 | 0.404 | 1.1 | 0.424 | 0.859 | 0.391 | 0.895
7 | NC(=O)N/N=C1/CCC(O)CC1CC(=O)O (stereo not given) | – | > 100 | – | > 100 | – | > 100 | – | > 100 | – | > 100 | – | > 100 | – | > 100 | – | > 100 | – | > 100 | – | 31.9
8 | CC(C)(C)C(=O)OCC1C(=O)OCC1C(=O)N1Cc2cc3ccccc3nc2C1 (stereo not given) | – | 14.8 | – | 6.35 | – | 20.6 | – | 38.6 | – | 14.6 | – | 10.8 | – | 8.08 | – | 4.06 | – | 29.1 | – | 3.13
9 | O=C1/C(=C/c2ccccc2)CN(C(=O)CCN2CCOCC2)C/C1=C\c1ccccc1 | – | 10.3 | – | 24.3 | – | 3.52 | – | 14.5 | – | 6.29 | – | 3.41 | – | 5.4 | – | 21.6 | – | 18.8 | – | 6.51
10 | CC1(C)CC(O)C(C)(C)[C@@H](O)C1 (stereo not given in full) | – | > 100 | – | > 100 | – | > 100 | – | > 100 | – | > 100 | – | > 100 | – | > 100 | – | > 100 | – | > 100 | – | > 100
11 | C[C@@H]1[C@H](C)N1CC(O)Cn1ccnc1[N+](=O)[O-] (stereo not given in full) | – | > 100 | – | > 100 | – | > 100 | – | > 100 | – | > 100 | – | > 100 | – | > 100 | – | > 100 | – | > 100 | – | > 100
